Data published in ChEMBL document CHEMBL3886363, “Phenyl-tetrahydroisoquinoline derivatives” (2015).
Where “and” joins values, the source holds several entries; their conditions need not be identical. Equal entries are not always repeated.

Tests used:
[1] = target: T1, Cytochrome P450 11B2, mitochondrial (Homo sapiens, UniProt P19099); test: (§1) Cellular Enzyme Assay: G-402 cells expressing CYP11 constructs were established as described above and maintained in McCoy's 5a Medium Modified, ATCC Catalog No. 30-2007 containing 10% FCS and 400 ug/ml G418 (Geneticin) at 37° C. under an atmosphere of 5% CO2/95% air. […] For assaying enzymatic activity, cells were plated onto 96 well plates and incubated for 16 h. An aliquot of the supernatant is then transferred and analyzed for the concentration of the expected product (Aldosterone for CYP11B2; Cortisol for CYP11B1). The concentrations of these steroids can be determined using HTRF assays from CisBio analyzing either Aldosterone or Cortisol.; type: cell-based
T1 sequence (P19099 whole entry): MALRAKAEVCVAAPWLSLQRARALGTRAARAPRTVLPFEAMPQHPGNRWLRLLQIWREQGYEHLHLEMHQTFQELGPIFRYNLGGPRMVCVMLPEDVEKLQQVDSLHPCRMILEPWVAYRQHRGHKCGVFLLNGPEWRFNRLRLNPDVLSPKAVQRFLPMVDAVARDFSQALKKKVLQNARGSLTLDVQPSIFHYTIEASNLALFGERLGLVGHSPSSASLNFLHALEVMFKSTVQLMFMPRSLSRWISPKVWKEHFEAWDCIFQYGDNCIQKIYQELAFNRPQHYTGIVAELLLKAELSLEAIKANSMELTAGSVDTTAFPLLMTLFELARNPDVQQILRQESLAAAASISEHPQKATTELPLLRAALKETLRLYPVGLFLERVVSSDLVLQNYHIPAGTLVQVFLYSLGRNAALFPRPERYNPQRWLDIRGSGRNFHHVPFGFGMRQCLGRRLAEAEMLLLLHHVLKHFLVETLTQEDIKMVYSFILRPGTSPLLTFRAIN

[2] = target: T2, Cytochrome P450 11B1, mitochondrial (Homo sapiens, UniProt P15538); test: as §1; type: cell-based
T2 sequence (P15538 whole entry): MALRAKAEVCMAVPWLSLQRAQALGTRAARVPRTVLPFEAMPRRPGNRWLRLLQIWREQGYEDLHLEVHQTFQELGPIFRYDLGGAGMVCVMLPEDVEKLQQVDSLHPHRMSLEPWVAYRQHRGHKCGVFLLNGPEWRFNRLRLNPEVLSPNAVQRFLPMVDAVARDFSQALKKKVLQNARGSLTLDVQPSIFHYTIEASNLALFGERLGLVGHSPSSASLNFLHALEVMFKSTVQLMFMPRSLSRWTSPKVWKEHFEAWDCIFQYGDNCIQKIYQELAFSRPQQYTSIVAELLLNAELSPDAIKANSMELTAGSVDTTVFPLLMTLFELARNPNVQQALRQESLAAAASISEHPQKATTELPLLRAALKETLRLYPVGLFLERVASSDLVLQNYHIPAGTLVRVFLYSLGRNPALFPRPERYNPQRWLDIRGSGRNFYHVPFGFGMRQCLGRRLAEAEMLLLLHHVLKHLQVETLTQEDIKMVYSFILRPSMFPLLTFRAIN

[3] = target: T1, Cytochrome P450 11B2, mitochondrial; test: as §1

Compound	EC50 [1]	EC50 [2]	EC50 [3]
CC1(C)Cc2c(-c3ccc(C(F)(F)F)c(F)c3)cncc2C1O (single isomer, unassigned)	0.0031 µM	0.304 µM and 0.791 µM	0.0303 µM
CC1(C)Cc2c(-c3ccc(C#N)cc3)cncc2C1O (single isomer, unassigned)	–	–	0.0022 µM and 0.0121 µM
CC1(C)Cc2c(-c3ccc(C(F)(F)F)cc3)cncc2C1O (single isomer, unassigned)	0.0304 µM	2.7 µM and 1.64 µM	0.0152 µM
CCC(=O)NC1CCc2c(-c3ccc(F)c(C)c3)cncc21 (single isomer, unassigned; form 1)	–	–	5.77 µM
